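Grown in 96-well plates, cells were treated for 48 hours with each compound at five concentrations. Insufficient inhibition: endpoint recorded as highest concentration tested. GI50 marks 50% less growth. TGI: total growth inhibition.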
Tests used:
Assay in all cases: DTP human tumour cell line panel, 48 h
OVCAR-3 ovarian = tested on: OVCAR-3 ovarian
SF-268 CNS = tested on: SF-268 CNS
MALME-3M melanoma = tested on: MALME-3M melanoma
NCI-H460 lung = tested on: NCI-H460 lung
CCRF-CEM leukemia = tested on: CCRF-CEM leukemia
786-0 renal = tested on: 786-0 renal
BT-549 breast = tested on: BT-549 breast
KM12 colon = tested on: KM12 colon
T-47D breast = tested on: T-47D breast
ACHN renal = tested on: ACHN renal
SR leukemia = tested on: SR leukemia
M14 melanoma = tested on: M14 melanoma
LOX IMVI melanoma = tested on: LOX IMVI melanoma
NCI-H23 lung = tested on: NCI-H23 lung
HOP-62 NSCLC = tested on: HOP-62 NSCLC
HCT-116 colon = tested on: HCT-116 colon
COLO 205 colon = tested on: COLO 205 colon
A549 NSCLC = tested on: A549 NSCLC
MDA-MB-231 breast = tested on: MDA-MB-231 breast
OVCAR-5 ovarian = tested on: OVCAR-5 ovarian
PC-3 prostate = tested on: PC-3 prostate
IGROV1 ovarian = tested on: IGROV1 ovarian
NCI-H522 lung = tested on: NCI-H522 lung
A498 renal = tested on: A498 renal
SF-295 CNS = tested on: SF-295 CNS
RPMI-8226 leukemia = tested on: RPMI-8226 leukemia
SK-MEL-28 melanoma = tested on: SK-MEL-28 melanoma
SW-620 colon = tested on: SW-620 colon
CAKI-1 renal = tested on: CAKI-1 renal
HCT-15 colon = tested on: HCT-15 colon
NCI/ADR-RES ovarian = tested on: NCI/ADR-RES ovarian
UO-31 renal = tested on: UO-31 renal
EKVX NSCLC = tested on: EKVX NSCLC
HOP-92 NSCLC = tested on: HOP-92 NSCLC
SK-OV-3 ovarian = tested on: SK-OV-3 ovarian
NCI-H226 lung = tested on: NCI-H226 lung
MDA-MB-468 breast = tested on: MDA-MB-468 breast
SK-MEL-2 melanoma = tested on: SK-MEL-2 melanoma
HS 578T breast = tested on: HS 578T breast
UACC-257 melanoma = tested on: UACC-257 melanoma
K-562 leukemia = tested on: K-562 leukemia
DU-145 prostate = tested on: DU-145 prostate
SK-MEL-5 melanoma = tested on: SK-MEL-5 melanoma
OVCAR-8 ovarian = tested on: OVCAR-8 ovarian
SNB-19 CNS = tested on: SNB-19 CNS
TK-10 renal = tested on: TK-10 renal
HL-60(TB) leukemia = tested on: HL-60(TB) leukemia
MCF7 breast = tested on: MCF7 breast
MDA-MB-435 = tested on: MDA-MB-435
RXF 393 renal = tested on: RXF 393 renal
SNB-75 CNS = tested on: SNB-75 CNS
SF-539 CNS = tested on: SF-539 CNS
OVCAR-4 ovarian = tested on: OVCAR-4 ovarian
U251 CNS = tested on: U251 CNS
UACC-62 melanoma = tested on: UACC-62 melanoma
SN12C renal = tested on: SN12C renal
HT29 colon = tested on: HT29 colon
HCC-2998 colon = tested on: HCC-2998 colon
MOLT-4 leukemia = tested on: MOLT-4 leukemia

O=C(Cc1ccc2c(c1)CN(C1CCC(=O)NC1=O)C2=O)NCc1cccc2ccccc12 (configuration not stated)
GI50 (OVCAR-3 ovarian): 25.9 nM | TGI (OVCAR-3 ovarian): 1170 nM | GI50 (SF-268 CNS): < 10 nM | TGI (SF-268 CNS): 260 nM | GI50 (MALME-3M melanoma): < 10 nM | TGI (MALME-3M melanoma): < 10 nM | GI50 (NCI-H460 lung): 5170 nM | TGI (NCI-H460 lung): > 100000 nM | GI50 (CCRF-CEM leukemia): < 10 nM | TGI (CCRF-CEM leukemia): 105 nM | GI50 (786-0 renal): < 10 nM | GI50 (BT-549 breast): < 10 nM | TGI (BT-549 breast): < 10 nM | GI50 (KM12 colon): < 10 nM | TGI (KM12 colon): 461 nM | GI50 (T-47D breast): < 10 nM | TGI (T-47D breast): < 10 nM | GI50 (ACHN renal): 52.6 nM | TGI (ACHN renal): 904 nM | GI50 (SR leukemia): 92.9 nM | TGI (SR leukemia): > 100000 nM | GI50 (M14 melanoma): < 10 nM | TGI (M14 melanoma): 33.4 nM | GI50 (LOX IMVI melanoma): 41.5 nM | TGI (LOX IMVI melanoma): 2510 nM | GI50 (NCI-H23 lung): 88.6 nM | TGI (NCI-H23 lung): 3990 nM | GI50 (HOP-62 NSCLC): < 10 nM | TGI (HOP-62 NSCLC): < 32.1 nM | GI50 (HCT-116 colon): 54.6 nM | TGI (HCT-116 colon): > 100000 nM | GI50 (COLO 205 colon): < 10 nM | TGI (COLO 205 colon): < 10 nM | GI50 (A549 NSCLC): 14.6 nM | TGI (A549 NSCLC): > 100000 nM | GI50 (MDA-MB-231 breast): < 10 nM | TGI (MDA-MB-231 breast): < 10 nM | GI50 (OVCAR-5 ovarian): < 10 nM | TGI (OVCAR-5 ovarian): 40.9 nM | GI50 (PC-3 prostate): < 10 nM | TGI (PC-3 prostate): 177 nM | GI50 (IGROV1 ovarian): < 10 nM | TGI (IGROV1 ovarian): < 15.7 nM | GI50 (NCI-H522 lung): 29.1 nM | TGI (NCI-H522 lung): 351 nM | GI50 (A498 renal): < 10 nM | TGI (A498 renal): 72.8 nM | GI50 (SF-295 CNS): < 10 nM | TGI (SF-295 CNS): 129 nM | GI50 (RPMI-8226 leukemia): < 11.3 nM | TGI (RPMI-8226 leukemia): > 100000 nM | GI50 (SK-MEL-28 melanoma): < 11.4 nM | TGI (SK-MEL-28 melanoma): 189 nM | GI50 (SW-620 colon): < 10 nM | GI50 (CAKI-1 renal): < 10 nM | TGI (CAKI-1 renal): 6380 nM | GI50 (HCT-15 colon): < 10 nM | TGI (HCT-15 colon): 114 nM | GI50 (NCI/ADR-RES ovarian): 300 nM | TGI (NCI/ADR-RES ovarian): 3080 nM | GI50 (UO-31 renal): < 11.5 nM | TGI (UO-31 renal): 87.7 nM | GI50 (EKVX NSCLC): < 22.4 nM | GI50 (HOP-92 NSCLC): < 10 nM | TGI (HOP-92 NSCLC): < 10 nM | GI50 (SK-OV-3 ovarian): < 10 nM | TGI (SK-OV-3 ovarian): 147 nM | GI50 (NCI-H226 lung): < 10 nM | TGI (NCI-H226 lung): 41 nM | GI50 (MDA-MB-468 breast): < 10 nM | TGI (MDA-MB-468 breast): < 10 nM | GI50 (SK-MEL-2 melanoma): < 10 nM | TGI (SK-MEL-2 melanoma): 19.2 nM | GI50 (HS 578T breast): < 10 nM | TGI (HS 578T breast): < 17.9 nM | GI50 (UACC-257 melanoma): 350 nM | TGI (UACC-257 melanoma): > 100000 nM | GI50 (K-562 leukemia): < 10 nM | TGI (K-562 leukemia): > 100000 nM | GI50 (DU-145 prostate): 38.8 nM | GI50 (SK-MEL-5 melanoma): < 10 nM | TGI (SK-MEL-5 melanoma): < 11.9 nM | GI50 (OVCAR-8 ovarian): < 10 nM | GI50 (SNB-19 CNS): < 10 nM | TGI (SNB-19 CNS): 74.2 nM | GI50 (TK-10 renal): < 16.9 nM | TGI (TK-10 renal): 751 nM | GI50 (HL-60(TB) leukemia): < 10 nM | GI50 (MCF7 breast): < 10 nM | TGI (MCF7 breast): > 33300 nM | GI50 (MDA-MB-435): < 10 nM | TGI (MDA-MB-435): 163 nM | GI50 (RXF 393 renal): < 10 nM | TGI (RXF 393 renal): 25.7 nM | GI50 (SNB-75 CNS): < 10 nM | TGI (SNB-75 CNS): < 12 nM | GI50 (SF-539 CNS): < 10.3 nM | TGI (SF-539 CNS): 114 nM | GI50 (OVCAR-4 ovarian): < 10 nM | TGI (OVCAR-4 ovarian): 46 nM | GI50 (U251 CNS): 39.4 nM | TGI (U251 CNS): > 100000 nM | GI50 (UACC-62 melanoma): 40.3 nM | TGI (UACC-62 melanoma): 1420 nM | GI50 (SN12C renal): < 10 nM | TGI (SN12C renal): 88.2 nM | GI50 (HT29 colon): 10.2 nM | TGI (HT29 colon): 108 nM | GI50 (HCC-2998 colon): < 10 nM | TGI (HCC-2998 colon): < 10 nM | GI50 (MOLT-4 leukemia): < 10 nM | TGI (MOLT-4 leukemia): > 100000 nM

Source: PubChem BioAssay (NCI)
